BindingDB's records for doi:10.1038/304065a0 (Hoechst Pharmaceutical Research Laboratories, 1983)

These molecules were tested against Histamine H2 receptor (Cavia porcellus, UniProt P47747).
Chain of Histamine H2 receptor (P47747 whole entry): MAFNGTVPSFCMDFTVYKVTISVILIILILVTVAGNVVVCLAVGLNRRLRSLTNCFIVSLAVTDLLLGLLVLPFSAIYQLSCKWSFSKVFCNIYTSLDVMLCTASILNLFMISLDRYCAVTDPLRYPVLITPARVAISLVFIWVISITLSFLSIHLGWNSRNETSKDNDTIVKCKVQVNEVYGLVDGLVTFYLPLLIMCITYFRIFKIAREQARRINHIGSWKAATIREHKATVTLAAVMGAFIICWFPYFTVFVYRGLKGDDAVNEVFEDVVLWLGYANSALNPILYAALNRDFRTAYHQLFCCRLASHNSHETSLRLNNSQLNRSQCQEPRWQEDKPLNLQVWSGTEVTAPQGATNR

Ki [nM]	SMILES
3000	CNC(=S)NCCCCc1cnc[nH]1 [1-[4-(1H-imidazol-5-yl)butyl]-3-methylthiourea]
> 10000	CN(C)CCCSC(=N)N [[3-(carbamimidoylsulfanyl)propyl]dimethylamine]
12	NC(N)=Nc1nc(CSCCC(N)=NS(N)(=O)=O)cs1

Second part, the molecule before the results:

SMILES	Ki [nM]
CNC(=S)NCCCc1cnc[nH]1	> 10000
CN/C([CH-][N+](=O)[O-])=[NH+]\CCSCc1ccc(CN(C)C)o1	390
Cc1[nH]cnc1CSCCNC(=N)NCCCc1c[nH]cn1 [2-[3-(1H-imidazol-5-yl)propyl]-1-(2-{[(5-methyl-1H-imidazol-4-yl)methyl]sulfanyl}ethyl)guanidine]	63
C/N=C(\S)NCCSCc1[nH]cnc1C [CAS_34839-70-8]	510
Cc1nc[nH]c1CCN [2-(5-methyl-1H-imidazol-4-yl)ethan-1-amine]	> 10000
